Results reported in US20100113517A1, “METHOD FOR THE TREATMENT OF FABRY DISEASE USING PHARMACOLOGICAL CHAPERONES” (AMICUS THERAPEUTICS, INC., priority 2007, published 2010).

Target: T1, α-Gal A (Homo sapiens, UniProt P06280)
T1 construct: α-Gal A activity was calculated in white blood cells (WBC) before dosing began; endogenous in cells; host or cells: white blood cells of healthy human volunteers
T1 sequence (P06280 32-429): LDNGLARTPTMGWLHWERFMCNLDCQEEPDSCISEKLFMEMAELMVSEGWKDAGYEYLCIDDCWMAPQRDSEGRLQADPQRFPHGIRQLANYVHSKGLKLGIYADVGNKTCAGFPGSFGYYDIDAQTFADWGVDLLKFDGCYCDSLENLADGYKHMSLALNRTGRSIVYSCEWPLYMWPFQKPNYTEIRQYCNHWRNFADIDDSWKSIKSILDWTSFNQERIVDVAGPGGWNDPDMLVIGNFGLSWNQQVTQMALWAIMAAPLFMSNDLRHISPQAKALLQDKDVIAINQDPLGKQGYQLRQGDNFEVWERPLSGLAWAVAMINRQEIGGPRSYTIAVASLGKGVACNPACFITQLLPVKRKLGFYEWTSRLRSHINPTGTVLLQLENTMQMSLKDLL
Experiment: Phase Ib WBC α-Gal A enzymatic activity
Format: in vivo, healthy volunteers (human)
Method: WBC α-GAL A Enzymatic Activity Sampling. Blood samples (10 mL each) were collected in blood collection tubes containing EDTA and WBC extracted before dosing and at the following times thereafter: 100 hours, 150 hours, and 336 hours. Samples were treated as described above, and WBC α-Gal A enzymatic activity levels were determined as described in Desnick, R. J. (ed) Enzyme therapy in genetic diseases. Vol 2. Alan R Liss, New York, pp 17-32. Statistical Analysis. Safety data including laboratory evaluations, physical exams, adverse events, ECG monitoring and vital signs assessments were summarized by treatment group and point of time of collection. Descriptive statistics (arithmetic mean, standard deviation, median, minimum and maximum) were calculated for quantitative safety data as well as for the difference to baseline. Frequency counts were compiled for classification of qualitative safety data. In addition, a shift table describing out of normal range shifts was provided for clinical laboratory results. A normal-abnormal shift table was also presented for physical exam results and ECGs.

inhibition of WBC α-Gal A enzymatic activity (50 mg b.i.d. or 150 mg b.i.d.): did not inhibit
WBC α-Gal A enzymatic activity (50 mg b.i.d., 100 hours): 120 % pre-dose levels
WBC α-Gal A enzymatic activity (50 mg b.i.d., 150 hours): 130 % pre-dose levels
WBC α-Gal A enzymatic activity (50 mg b.i.d., 336 hours): 145 % pre-dose levels
WBC α-Gal A enzymatic activity (150 mg b.i.d., 100 hours): 150 % pre-dose levels
WBC α-Gal A enzymatic activity (150 mg b.i.d., 150 hours): 185 % pre-dose levels
WBC α-Gal A enzymatic activity (150 mg b.i.d., 336 hours): 185 % pre-dose levels
SMILES: OCC1NCC(O)C(O)C1O (stereo not shown) [DGJ, 1-deoxygalactonojirimycin]
